Laboratory results as given in patent publication US11116778B2, “Prodrugs of ALOX-15 inhibitors and methods of using the same” (EMPIRICO INC., priority 2019, dated 2021).

Columns and labels:
[1] = Levels of compound 3 and compound 5 in rabbit nasal lavage and serum after nasal administration of compound 5; assay type: in vivo; details: rabbits
Description: (§1) Six (6) female NZW rabbits were employed in this study. Rabbits were obtained from Covance (Denver Pa.). Rabbits were between approximately 10 and 12 months of age at the time of study start. At time point 0, all animals received 50 μL of solution containing rabbit IL4 (RND Systems/Biotechne) and human IL13 (PreproTech) at a concentration of 0.25 mg/mL each in 0.5×PBS containing 12.5 mg/mL BSA per nostril. This was administered intranasally via a venous catheter attached to a micropipette. The animal was positioned in a supine manner and the venous catheter inserted into the nostril. The volume was introduced into the nasal cavity and the same procedure was repeated with the other nostril.
At the 2, 4, and 6 hour time points, animals in Group 1 (n=3) received 0.2 mL of vehicle (0.9% saline) per nostril and the animals in Group 2 (n=3) received 0.2 mL of compound 5 (10 mM) in vehicle per nostril. The dosing of vehicle and compound 5 proceed as follows: The animal was positioned in a supine manner in a restraint bag and a mucosal atomization device (MAD) attached to the pre-filled tuberculin syringe was inserted into the nostril and introduced into the nasal cavity. The same procedure was repeated with the other nostril.
At the 8 hour time point, all the nostrils of all animals were lavaged with 1 mL of 0.9% saline per nostril and the resulting fluid collected. Intranasal lavages were performed as follows: The animals were held sternally in a restraint bag with the head over the edge of the table and the rear of the animal elevated higher than the head. A flexible venous catheter was inserted in the nostril until resistance was felt. The 1 mL of saline was introduced through the catheter into the nasal cavity. The nasal lavage returned from the nostril was collected via a funnel into a conical tube and the approximate volume recorded. This procedure was repeated for the other nostril. The lavage was stored at approximately −70° C. until analysis. Following (<10 minutes) the 8 hour time point lavage, blood was collected from all animals, processed to serum, and frozen at approximately −70° C. until analysis.
Nasal lavage and serum samples were analyzed for the levels of compound 3 and compound 5. Frozen tissue samples were weighed (20-120 mg) and placed into 2 mL CK14 homogenizing tubes (Bertin) and 500 μL of methanol containing 1 mM butylated hydroxy toluene (BHT) and 1 mM tris(2-carboxyethyl)phosphine (TCEP) was added. The tubes were placed in a Precellys 24 tissue homogenizer (Bertin) and run at 6000 rpm six times for 20 seconds with a 10 second pause between cycles. The tubes containing the homogenized tissue were then placed in a microfuge and centrifuged for 5′ at 14,000 rpm to pellet any insoluble material. Compound 3 was quantified using LC-MS/MS (QTrap5500, Applied Biosystems). Q1/Q3 Masses: 306.00/135.00 using a deschloro derivative of compound 3 (lacking chlorine at 4 position of pyrazole ring) as an internal standard. The Q1/Q3 Masses are 272.00/101.00 Da for the internal standard. Compound 3 was extracted using liquid/liquid extraction with methanol as a diluent. […] Compound 5 was quantified using LC-MS/MS (QTrap5500, Applied Biosystems). […] Compound 5 was detected in the lavage samples from Group 2 animals (rabbit 1, rabbit 2, rabbit 3) and ranged in average concentration from 0.016 uM-0.35 uM. […]

ALOX15 mRNA = ALOX15 mRNA by RT-qPCR in rabbit nasal mucosa; assay type: in vivo; details: rostral and caudal regions; rabbits, compound 5 10 mM intranasal
Description: as §1, with “other nostril. […]” for “other nostril.”
Relative ALOX15 and POSTN mRNA levels in nasal mucosa were measured by RT-qPCR. […] The level of ALOX15 or POSTN mRNA from each sample was measured in triplicate by real-time qPCR on an Applied Biosystems 7500 Fast Real-Time PCR machine using the TaqMan Gene Expression Assay for rabbit ALOX15 (ThermoFisher, assay #Oc03823548_s1). The level of GAPDH mRNA was measured in biplex reactions using TaqMan Gene Expression Assay (ThermoFisher, assay #Oc03823402_g1) and used to determine relative ALOX15 mRNA levels in each well using the delta-delta Ct method. […] Relative POSTN mRNA levels were measured as above using TaqMan Gene Expression Assay specific for rabbit POSTN mRNA (ThermoFisher, assay #Oc06804808_s1). […]

## O=C(Nc1ccc(F)cc1Cl)c1nn(COP(=O)(O)O)c(Cl)c1Cl [compound 5, (4,5-dichloro-3-((2-chloro-4-fluorophenyl)carbamoyl)-1H-pyrazol-1-yl)methyl dihydrogen phosphate]
[1]; female, NZW, rabbit, nasal lavage, other: intranasal (mucosal atomization device), 0.2 mL of 10 mM compound 5 per nostril at 2, 4, 6 hours, lavage at 8 hours, range over 3 rabbits, read-out: average concentration of compound 5 in nasal lavage (FIG. 8)
  concentration at 8 h: 0.016 to 0.35 µM
[1]; intranasal compound 5 10 mM, blood after the 8 hour lavage
  level in serum samples: no quantifiable
[1]; intranasal compound 5 10 mM, lavage at 8 hours
  conversion of compound 5 to compound 3 in nasal lavage (FIG. 8): majority of compound 5 was converted to compound 3
ALOX15 mRNA
  relative level of ALOX15 mRNA in nasal mucosa versus vehicle (FIG. 11): lower
